This experiment deals with SARS-CoV-2 3CLpro (Severe acute respiratory syndrome coronavirus 2, UniProt P0DTD1). Briefly: biochemical. It counts as biochemical. Further details: Replicate_1 / Replicate_2 / mean / mean (LOPAC_screen_w_protease): unit not given here.
The mark [1] stands for this setting: 4 h, LOPAC1280 primary screen with protease, 5 µM compound, replicate 1, read-out: Replicate_1 (LOPAC_screen_w_protease).
Where [2] appears, read: 4 h, LOPAC1280 primary screen with protease, 5 µM compound, replicate 2, read-out: Replicate_2 (LOPAC_screen_w_protease).
[3] abbreviates: LOPAC1280 primary screen with protease, 5 µM compound, mean of two replicates.
Setting [4] is: sheet LOPAC_screen_w_protease, primary screen with protease, mean of two replicates.
Where [5] appears, read: sheet LOPAC_screen_w_protease, primary screen with protease, replicate 1.
Where [6] appears, read: sheet LOPAC_screen_w_protease, primary screen with protease, replicate 2.
Where [7] appears, read: sheet LOPAC_screen_w_protease, primary screen with protease, compound at 5 µM, mean of two replicates.
Setting [8] is: sheet LOPAC_screen_w_protease, primary screen with protease, compound at 5 µM, replicate 1.
The mark [9] stands for this setting: sheet LOPAC_screen_w_protease, primary screen with protease, compound at 5 µM, replicate 2.
Where [10] appears, read: sheet LOPAC_screen_w_protease, primary screen with protease, 5 µM, mean of two replicates.
The mark [11] stands for this setting: sheet LOPAC_screen_w_protease, primary screen with protease, 5 µM, replicate 1.
The mark [12] stands for this setting: sheet LOPAC_screen_w_protease, primary screen with protease, 5 µM, replicate 2.
[13] abbreviates: LOPAC1280 primary screen with protease, 5 µM compound, mean of the two replicates.
Setting [14] is: LOPAC1280 primary screen with protease, 5 µM compound, replicate 1.
The mark [15] stands for this setting: LOPAC1280 primary screen with protease, 5 µM compound, replicate 2.
[16] abbreviates: 4 h, sheet LOPAC_screen_w_protease, primary screen of LOPAC1280 at 5 µM with protease, mean of the two replicates, read-out: mean.
Setting [17] is: 4 h, sheet LOPAC_screen_w_protease, primary screen of LOPAC1280 at 5 µM with protease, replicate 1, read-out: Replicate_1.
Where [18] appears, read: 4 h, sheet LOPAC_screen_w_protease, primary screen of LOPAC1280 at 5 µM with protease, replicate 2, read-out: Replicate_2.
The mark [19] stands for this setting: 4 h, sheet LOPAC_screen_w_protease, LOPAC1280 primary screen with protease, 5 µM compound, mean of the two replicates, read-out: mean.
Where [20] appears, read: 4 h, sheet LOPAC_screen_w_protease, LOPAC1280 primary screen with protease, 5 µM compound, replicate 1, read-out: Replicate_1.
Setting [21] is: 4 h, sheet LOPAC_screen_w_protease, LOPAC1280 primary screen with protease, 5 µM compound, replicate 2, read-out: Replicate_2.
Setting [22] is: sheet LOPAC_screen_w_protease, primary screen of LOPAC1280 at 5 µM with protease, mean of the two replicates.
The mark [23] stands for this setting: sheet LOPAC_screen_w_protease, primary screen of LOPAC1280 at 5 µM with protease, replicate 1.
Where [24] appears, read: sheet LOPAC_screen_w_protease, primary screen of LOPAC1280 at 5 µM with protease, replicate 2.

The structures appear in SMILES notation. Structures can show the parent of a compound that is named as a salt. Where two headings read alike, the source gives them in different places.

Consider `O=c1cc(-c2ccc(O)cc2)oc2cc(O)cc(O)c12` [Apigenin], for which the inhibition at 5 µM is 0.663% (4 h, read-out: Replicate_1); -0.402% (4 h, read-out: Replicate_2); 0.131% (4 h, read-out: mean).
As to `O=c1[nH]c(=O)n([C@H]2C[C@H](O)[C@@H](CO)O2)cc1Br` [5-Bromo-2'-deoxyuridine], the inhibition at 5 µM turned out to be 1.74% under setting [1] and 1.06% under setting [2]. Besides, the “mean (LOPAC_screen_w_protease)” value under setting [3] amounted to 1.398.
`COc1ccc2c(c1O)-c1cccc3c1[C@@H](C2)N(C)CC3` [R(−)-apocodeine, reference compound]: under “5 µM”, the “inhibition of 3CLpro in the primary screen” value is given as 6%.
Consider `COc1cc2c(CCNC(C)=O)c[nH]c2cc1O` [6-Hydroxymelatonin], for which, under setting [4], the mean turned out to be 2.302. The compound also registered a Replicate_1 under setting [5] of 3.2941. In addition, the Replicate_2 under setting [6] worked out at 1.31.
`CC(C)[C@@]1(NC(=O)[C@@H]2C[C@@H]3c4cccc5[nH]cc(c45)C[C@H]3N(C)C2)O[C@@]2(O)[C@@H]3CCCN3C(=O)[C@H](Cc3ccccc3)N2C1=O.CS(=O)(=O)O` [Dihydroergocristine methanesulfonate] registered a mean under setting [7] of 2.761. Further, the Replicate_1 under setting [8] was 2.962. For the same compound, the Replicate_2 under setting [9] was determined as 2.561.
`Br.C[N+](C)(C)CCCCCNCC12CC3CC(CC(C3)C1)C2.[Br-]` [IEM-1460]: the mean under setting [10] amounted to 0.3994. This compound also yielded a Replicate_1 under setting [11] of 0.5263. Under setting [12], this compound came in with a Replicate_2 of 0.2724.
As to `Oc1ccc(/C=C/c2cc(O)cc(O)c2)cc1` [Resveratrol], where the note is “4 h, read-out: Replicate_2”, the inhibition at 5 µM is -6.92%.
As for `CN(Cc1cnc2nc(N)nc(N)c2n1)c1ccc(C(=O)N[C@@H](CCC(=O)O)C(=O)O)cc1` [(-)Amethopterin], the “mean (LOPAC_screen_w_protease)” value under setting [13] came to 2.014. The “Replicate_1 (LOPAC_screen_w_protease)” value under setting [14] amounted to 2.356. The “Replicate_2 (LOPAC_screen_w_protease)” value under setting [15] was 1.671.
As for `CC1=NS(=O)(=O)c2cc(Cl)ccc2N1` [Diazoxide], the inhibition at 5 µM runs as follows: under setting [16], 3.37%; under setting [17], 4.67%; under setting [18], 2.07%.
Consider `NC(CO)(CO)CO.O=C(c1ccccc1)c1ccc2n1CCC2C(=O)O` (stereo not drawn) [Ketorolac tris salt], for which the “mean (LOPAC_screen_w_protease)” value under setting [3] is reported as 1.7087. For the same compound, the “Replicate_1 (LOPAC_screen_w_protease)” value under setting [14] was 1.974. For the same compound, under setting [15], the “Replicate_2 (LOPAC_screen_w_protease)” value is given as 1.443.
Consider `CCn1cc(C(=O)[O-])c(=O)c2ccc(C)nc21.[Na+]` [Nalidixic acid sodium], for which, where the note is “sheet LOPAC_screen_w_protease, LOPAC1280 primary screen with protease, 5 µM compound, mean of the two replicates”, the mean was 4.611. The compound also registered a Replicate_1 (sheet LOPAC_screen_w_protease, LOPAC1280 primary screen with protease, 5 µM compound, replicate 1) of 4.1091. The compound also yielded a Replicate_2 (sheet LOPAC_screen_w_protease, LOPAC1280 primary screen with protease, 5 µM compound, replicate 2) of 5.113.
Take `NCCSSCCN` [Cystamine dihydrochloride]: the inhibition at 5 µM runs as follows: (4 h, sheet LOPAC_screen_w_protease, primary screen at 5 µM, mean of two replicates, read-out: mean (LOPAC screen with protease)) 14.4%; (4 h, sheet LOPAC_screen_w_protease, primary screen at 5 µM, replicate 1, read-out: Replicate_1 (LOPAC screen with protease)) 14.2%; (4 h, sheet LOPAC_screen_w_protease, primary screen at 5 µM, replicate 2, read-out: Replicate_2 (LOPAC screen with protease)) 14.5%.
Take `CCCN(CCC)C(=O)C(CCC(=O)O)NC(=O)c1ccccc1` (stereo not drawn) [Proglumide]: the inhibition at 5 µM by setting is: under setting [19], 4.27%; under setting [20], 4.11%; under setting [21], 4.43%.
For `Br.C=CCN1CCc2c(cc(O)c(O)c2Br)[C@@H](c2ccccc2)C1` [R(+)-6-Bromo-APB hydrobromide], for the setting “sheet LOPAC_screen_w_protease, primary screen at 5 µM, mean of two replicates”, the “mean (LOPAC screen with protease)” value was found to be 28.8024. Besides, where the note is “sheet LOPAC_screen_w_protease, primary screen at 5 µM, replicate 1”, the “Replicate_1 (LOPAC screen with protease)” value is on record as 26.2193. In addition, the “Replicate_2 (LOPAC screen with protease)” value (sheet LOPAC_screen_w_protease, primary screen at 5 µM, replicate 2) was 31.3855.
Take `CC1CCN=C(N)S1.Cl` (racemic) [(±)-AMT hydrochloride]: the Replicate_1 is 3.477, the Replicate_2 is 0.9466 and the mean came out at 2.212.
`O=c1c(O)c(-c2ccc(O)c(O)c2)oc2cc(O)cc(O)c12` [quercetin, reference compound]: for the setting “read-out: inhibition of 3CLpro in the primary screen”, the inhibition at 5 µM is 1.9%.
In the case of `Br.CO[C@H]1CC=C2CCN3CCC4=C(CC(=O)OC4)[C@]23C1` [Dihydro-beta-erythroidine hydrobromide], under setting [13], the “mean (LOPAC_screen_w_protease)” value worked out at 2.038. Also, under setting [14], the “Replicate_1 (LOPAC_screen_w_protease)” value is recorded as 1.621. Moreover, under setting [15], the “Replicate_2 (LOPAC_screen_w_protease)” value is listed as 2.454.
Under setting [22], `COc1nc(C)nc(Cl)c1NC1=NCCN1.Cl` [Moxonidine hydrochloride] returned a mean of 3.905. The compound also came in with a Replicate_1 under setting [23] of 2.314. For the same compound, the Replicate_2 under setting [24] came out at 5.497.
In the case of `CCCC(CCC)C(=O)O` [Valproic acid sodium], the inhibition at 5 µM came out at 3.18% under setting [16], 2.68% under setting [17] and 3.67% under setting [18].
As for `NCCc1c[nH]c2ccccc12` [Tryptamine hydrochloride], the inhibition at 5 µM (4 h, sheet LOPAC_screen_w_protease, LOPAC1280 primary screen at 5 µM, with protease, mean of the two replicates, read-out: mean) was 0.461%; the inhibition at 5 µM (4 h, sheet LOPAC_screen_w_protease, LOPAC1280 primary screen at 5 µM, with protease, replicate 1, read-out: Replicate_1) is 0.957%; the inhibition at 5 µM (4 h, sheet LOPAC_screen_w_protease, LOPAC1280 primary screen at 5 µM, with protease, replicate 2, read-out: Replicate_2) was -0.0349%.
For the compound `CN(C)c1ccc(O)c2c1C[C@H]1C[C@H]3[C@H](N(C)C)C(O)=C(C(N)=O)C(=O)[C@@]3(O)C(O)=C1C2=O` [Minocycline hydrochloride], the inhibition at 5 µM came out at 5.31% under setting [19], 4.79% under setting [20] and 5.84% under setting [21].
Consider `Cc1ccccc1/C=C/C1=NCCN1` [Metrazoline oxalate], for which the inhibition at 5 µM reads like this: under setting [1], 2.83%; under setting [2], 0.879%. Moreover, under setting [13], the “mean (LOPAC_screen_w_protease)” value is 1.853.
Take `Cl.Nc1cc(Cl)c(N=C2NCCN2)c(Cl)c1` [p-Aminoclonidine hydrochloride]: the mean under setting [10] was 0.1922. The same compound came in with a Replicate_1 under setting [11] of 0.5913. Besides, under setting [12], the Replicate_2 is recorded as -0.207.
`CCN(CC)C(C)C(=O)N1c2ccccc2Sc2ccccc21.Cl` (stereo not drawn) yielded a mean under setting [7] of 2.78. This compound had a Replicate_1 under setting [8] of 5.208. This compound registered a Replicate_2 under setting [9] of 0.3523.
As for `N#CCCN.N#CCCN.O=C(O)/C=C/C(=O)O` [3-Aminopropionitrile fumarate], under “sheet LOPAC_screen_w_protease, LOPAC1280 at 5 µM, mean of two replicates”, the mean is reported as 0.9446. For the setting “sheet LOPAC_screen_w_protease, LOPAC1280 at 5 µM, replicate 1”, this compound returned a Replicate_1 of 1.551. This compound also returned a Replicate_2 (sheet LOPAC_screen_w_protease, LOPAC1280 at 5 µM, replicate 2) of 0.3384.
`COC(=O)c1c(-c2cc(OC)c(OC)c(OC)c2)c2ccc(OCc3ccccn3)cc2c(=O)n1-c1ccc(N)cc1.O=S(=O)(O)O` [T-1032] showed a mean (sheet LOPAC_screen_w_protease, LOPAC1280 primary screen at 5 µM, with protease, mean of the two replicates) of 0.5404. The compound also registered a Replicate_1 (sheet LOPAC_screen_w_protease, LOPAC1280 primary screen at 5 µM, with protease, replicate 1) of 1.02. In addition, the Replicate_2 (sheet LOPAC_screen_w_protease, LOPAC1280 primary screen at 5 µM, with protease, replicate 2) was determined as 0.06128.
In turn, `CCCN(CCC)C(=O)Cc1c(-c2ccc(Cl)cc2)nc2c(Cl)cc(Cl)cn12` [CB34] came in with a Replicate_1 of 2.062, a Replicate_2 of 2.367 and a mean of 2.2145.
On to `CCn1cc(C(=O)O)c(=O)c2ccc(Cc3ccccc3)nc21` [Amfonelic acid], for which the inhibition at 5 µM under setting [16] worked out at 3.23%, the inhibition at 5 µM under setting [17] turned out to be 4.99% and the inhibition at 5 µM under setting [18] was found to be 1.47%.
With `OC(CN1CCN(c2cccc(Cl)c2)CC1)C(c1ccccc1)c1ccccc1` (stereo not drawn) [BRL 15572], the “mean (LOPAC_screen_w_protease)” value under setting [13] is 1.912. Further, the “Replicate_1 (LOPAC_screen_w_protease)” value under setting [14] was determined as 0.6201. For the same compound, under setting [15], the “Replicate_2 (LOPAC_screen_w_protease)” value stood at 3.204.
For the compound `Cl.N[C@@H](Cc1cnc[nH]1)C(=O)O` [L-Histidine hydrochloride], the mean under setting [22] turned out to be 3.829. The compound further returned a Replicate_1 under setting [23] of 4.566. The compound also came in with a Replicate_2 under setting [24] of 3.093.
With `C[C@H](Cc1ccc(OCC(=O)[O-])cc1)NC[C@H](O)c1cccc(Cl)c1.[Na+]` [BRL 37344 sodium], the mean under setting [4] is listed as 2.226. For the same compound, the Replicate_1 under setting [5] stood at 0.8642. Under setting [6], this compound gave a Replicate_2 of 3.588.

(Values after PMC7587356, “High-Throughput Screening for Inhibitors of the SARS-CoV-2 Protease Using a FRET-Biosensor” (Molecules, 2020).)
